How the values were obtained:
[1] = Activator selection: pH of Peroxydone K-30 dispersion in water after addition of activator; format: physicochemical; settings: for Associated pH: at the minimum amount of activator, 11 g of Peroxydone K-30 in 75 g of water; for Minimum amount in order to reach a pH > 9 or a plateau pH if pH < 9: initial amount of 11 g of Peroxydone K-30, i.e. 2 g of H2O2, in 75 g of water
Description: In the case of a PVP-H2O2 complex, the following protocol can be used to select the activators. A dispersion of 11 g of Peroxydone K-30® (ISP) in 75 g of water is produced, to which increasing amounts of activator are added. pH is measured immediately after each addition. The activator is added in excess until the activator/H2O2 ratio by weight reaches 10.

[2] = In vitro bleaching test on a dye (lightening activity); settings: H2O2 4% or PVP-H2O2 22% (eq. 4% H2O2), 1 g in 19 g dye solution, pH 10.7, OD 630 nm
Description: Protocol for in vitro bleaching test Dye solution or “solution X” is a solution of disodium salt of brilliant blue FCF (CI: 42090) from LCW (Sensient). The dye solution is prepared as follows: 15 mg of dye powder are dissolved in 50 ml of borate buffer pH 10.7 and then again diluted to 1/50th. […] After stirring the mixture in the dark for 10 min, the dispersion is filtered (0.45 μm cellulose filter) and the optical density is measured over the range from 400 to 800 nm at 25° C. […] The decoloring effectiveness is reflected by the bleaching percentage at t=10 min (i.e. [ODt10 min (mixture)−ODt10 min (dye)/ODt0 (dye)]×100.

Row | Compound | Associated pH [1] | Minimum amount in order to reach a pH > 9 or a plateau pH if pH < 9 [1] [g] | bleaching percentage at t=10 min ([2]; dilution medium PEG-8) [%] | bleaching percentage at t=10 min ([2]; dilution medium butylene glycol) [%] | bleaching percentage at t=10 min ([2]; dilution medium ethanol) [%] | bleaching percentage at t=10 min ([2]; dilution medium glycerol) [%]
1 | [Ca+2].[O-][O-] [Calcium peroxide] | 9.3 | 0.05 | – | – | – | –
2 | OO [Product H2O2, hydrogen peroxide] | – | – | 61 | 63 | 72 | 27
3 | O=C([O-])O.[Na+] [Sodium bicarbonate] | 8.1 | 0.9 | – | – | – | –
4 | O=[Si]([O-])[O-].[Na+].[Na+] [Sodium metasilicate] | 9.8 | 0.11 | – | – | – | –

— patent publication US20110059035A1, “COMPOSITIONS BASED ON POLYMER/HYDROGEN PEROXIDE COMPLEXES AND USES THEREOF” (L"OREAL, priority 2008, published 2011)
